Data on 2 molecules can be found in patent publication EP1717249A1, “Peptides containing a cholesterol recognition sequence and their uses” (GEORGETOWN UNIVERSITY, priority 1998, dated 1999).

For one assay, the target named is T1, PBR (Mus musculus, UniProt P50637).
T1 construct: made in house; host or cells: Escherichia coli BL21(DE3), IPTG-induced
Nature of the assay: Ligand-induced release of 3H-cholesterol from membranes of IPTG-induced transformed bacteria. To be noted: cholesterol-loaded bacterial membranes (Fig. 3F). Type of assay: biochemical.

The target of a further assay is T2, recombinant mPBR (Mus musculus, UniProt P50637).
T2 construct: made in house; host or cells: Escherichia coli BL21(DE3), IPTG-induced
Description: 3H-PK 11195 radioligand binding to recombinant PBR (wild-type and mutated) expressed in IPTG-induced E. coli. To be noted: 3H-PK 11195 binding to IPTG-induced bacteria expressing mouse PBR, Scatchard analysis.

The next assay has as its system isolated mitochondria. Particulars: cited from earlier work.

Description for recombinant mPBR: Construction of the mouse PBR expression vector (pET15bPBR) and Expression of Recombinant PBR in bacteria- The pET system (Novagen, Madison, WI) was used to express the MA-10 mouse PBR (mPBR) recombinant protein. […] This mPBR fragment was inserted into pET15b vector and linearized with NdeI and XhoI downstream of the T71ac promoter. Recombinant mPBR expression vector was used to transform the BL21(DE3) Escherichia coli strain (Novagen) where the expression of recombinant mPBR protein was induced by 1mM isopropyl-1-thiol-β-D-galactopyranoside (IPTG). PBR protein expression was monitored by SDS-PAGE followed by Coomassie Blue staining or immunoblot analysis using anti-PBR antiserum (Amri et al. 1996, supra). Binding specificity of the IPTG-induced PBR in E. coli was determined in binding studies where specific binding of ^3H-PK 11195 (1.0 nM) was measured in the presence of the indicated concentrations of the indicated ligands.
Radioligand binding assays- ^3H-1-(2-chlorophenyl)-N-methyl-N-(1-methyl-propyl)-3-isoquinolinecarboxamide (PK 11195) binding studies were performed as we previously described (Papadopoulos, V. et al. 1990, J. Biol. Chem. 265: 3772-3779; Garnier, M. et al. 1994, Mol. Pharm. 45:201-211). […]

Take `CCC(C)N(C)C(=O)c1cc2ccccc2c(-c2ccccc2Cl)n1` (stereo not drawn) [PK 11195, 1-(2-chlorophenyl)-N-methyl-N-(1-methyl-propyl)-3-isoquinolinecarboxamide]: the “3H-cholesterol released from cholesterol-loaded bacterial membranes” value at PBR is given as “cholesterol was liberated from the membranes”. For the same molecule, the Bmax on recombinant mPBR was 0.23 pmol/mg protein.
On to “TTN: naturally occurring processing product of DBI, the triakontatetrapeptide TTN (DBI17-50) (KTKPSDEEMLFIYGHYKQATVGDINTERPGMLDF; Triakontatetraneuropeptide; UniProt P07108 17-50, looked up, fragment)”, for which, in the assay on isolated mitochondria, the “intramitochondrial cholesterol transport and pregnenolone formation (mitochondrial steroidogenesis)” value is recorded as “able to mimic the effect of DBI”.
